According to PubChem BioAssay (NCI):
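Assay format: 96-well plates, 48-hour exposure. TGI marks complete inhibition of growth.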

Key:
Assay in all cases: growth of human tumour cells (NCI), 48 h
786-0 renal = test system: 786-0 renal
EKVX NSCLC = test system: EKVX NSCLC
SN12C renal = test system: SN12C renal
SNB-75 CNS = test system: SNB-75 CNS
COLO 205 colon = test system: COLO 205 colon
DMS 273 small cell lung = test system: DMS 273 small cell lung
SF-295 CNS = test system: SF-295 CNS
MALME-3M melanoma = test system: MALME-3M melanoma
SNB-19 CNS = test system: SNB-19 CNS
DLD-1 colon = test system: DLD-1 colon
NCI-H460 lung = test system: NCI-H460 lung
CAKI-1 renal = test system: CAKI-1 renal
HCT-116 colon = test system: HCT-116 colon
HOP-62 NSCLC = test system: HOP-62 NSCLC
LOX IMVI melanoma = test system: LOX IMVI melanoma
NCI-H23 lung = test system: NCI-H23 lung
UACC-62 melanoma = test system: UACC-62 melanoma
OVCAR-8 ovarian = test system: OVCAR-8 ovarian
SNB-78 CNS = test system: SNB-78 CNS
M19-MEL melanoma = test system: M19-MEL melanoma
DMS 114 small cell lung = test system: DMS 114 small cell lung
M14 melanoma = test system: M14 melanoma
LXFL 529 NSCLC = test system: LXFL 529 NSCLC
RXF 393 renal = test system: RXF 393 renal
U251 CNS = test system: U251 CNS
SF-268 CNS = test system: SF-268 CNS
A549 NSCLC = test system: A549 NSCLC
OVCAR-3 ovarian = test system: OVCAR-3 ovarian
K-562 leukemia = test system: K-562 leukemia
XF 498 CNS = test system: XF 498 CNS
SK-MEL-28 melanoma = test system: SK-MEL-28 melanoma
OVCAR-4 ovarian = test system: OVCAR-4 ovarian
RPMI-8226 leukemia = test system: RPMI-8226 leukemia
SW-620 colon = test system: SW-620 colon
SF-539 CNS = test system: SF-539 CNS
NCI-H226 lung = test system: NCI-H226 lung
IGROV1 ovarian = test system: IGROV1 ovarian
UACC-257 melanoma = test system: UACC-257 melanoma
CCRF-CEM leukemia = test system: CCRF-CEM leukemia
A498 renal = test system: A498 renal
SK-MEL-5 melanoma = test system: SK-MEL-5 melanoma
MOLT-4 leukemia = test system: MOLT-4 leukemia
TK-10 renal = test system: TK-10 renal
KM20L2 colon = test system: KM20L2 colon
OVCAR-5 ovarian = test system: OVCAR-5 ovarian
ACHN renal = test system: ACHN renal
UO-31 renal = test system: UO-31 renal
HCC-2998 colon = test system: HCC-2998 colon
SK-MEL-2 melanoma = test system: SK-MEL-2 melanoma
NCI-H522 lung = test system: NCI-H522 lung
KM12 colon = test system: KM12 colon
SK-OV-3 ovarian = test system: SK-OV-3 ovarian
HCT-15 colon = test system: HCT-15 colon
MDA-MB-231 breast = test system: MDA-MB-231 breast
MCF7 breast = test system: MCF7 breast
HL-60(TB) leukemia = test system: HL-60(TB) leukemia
DU-145 prostate = test system: DU-145 prostate
HT29 colon = test system: HT29 colon
RXF-631 renal = test system: RXF-631 renal
T-47D breast = test system: T-47D breast
HS 578T breast = test system: HS 578T breast
HOP-92 NSCLC = test system: HOP-92 NSCLC
MDA-MB-435 = test system: MDA-MB-435
MDA-N = test system: MDA-N
SR leukemia = test system: SR leukemia
NCI/ADR-RES ovarian = test system: NCI/ADR-RES ovarian
PC-3 prostate = test system: PC-3 prostate
BT-549 breast = test system: BT-549 breast
HOP-18 NSCLC = test system: HOP-18 NSCLC

Measured: TGI

Cc1cc(C)nc(NS(=O)(=O)c2ccc(NC(=O)c3cccc4c(N)c5ccccc5nc34)cc2)n1
not listed: MDA-MB-231 breast | MCF7 breast | HL-60(TB) leukemia | DU-145 prostate | HT29 colon | RXF-631 renal | T-47D breast | HS 578T breast | HOP-92 NSCLC | MDA-MB-435 | MDA-N | SR leukemia | NCI/ADR-RES ovarian | PC-3 prostate | BT-549 breast | HOP-18 NSCLC
> 100 µM: all other assays above

Oc1ccc(Cn2c(-c3ccc(O)cc3)nc3ccccc32)cc1
> 31.6 µM: HL-60(TB) leukemia | SR leukemia
not listed: SNB-78 CNS | HOP-18 NSCLC
> 100 µM: all other assays above

COC(=O)c1nc(N)nc(C(=O)OC)c1C(=O)c1ccccc1
not listed: COLO 205 colon | DMS 273 small cell lung | CAKI-1 renal | HOP-62 NSCLC | SNB-78 CNS | OVCAR-4 ovarian | NCI-H226 lung | MDA-MB-231 breast | MCF7 breast | DU-145 prostate | T-47D breast | HS 578T breast | MDA-MB-435 | MDA-N | NCI/ADR-RES ovarian | PC-3 prostate | BT-549 breast
> 100 µM: all other assays above

CCOC(=O)c1cn(CC)c2cc3c(cc2c1=O)SCS3
not listed: HCT-116 colon | SNB-78 CNS | XF 498 CNS | NCI-H226 lung | A498 renal | MDA-MB-231 breast | MCF7 breast | DU-145 prostate | T-47D breast | HS 578T breast | MDA-MB-435 | MDA-N | SR leukemia | NCI/ADR-RES ovarian | PC-3 prostate | BT-549 breast
> 100 µM: all other assays above

COc1ccc(C2C(Cl)C(=O)N2NC(=O)c2ccccc2O)cc1OC (configuration not stated)
47.7 µM: XF 498 CNS
not listed: EKVX NSCLC | SNB-75 CNS | COLO 205 colon | CAKI-1 renal | HOP-62 NSCLC | LXFL 529 NSCLC | RPMI-8226 leukemia | SW-620 colon | KM20L2 colon | OVCAR-5 ovarian | HCC-2998 colon | MDA-MB-231 breast | MCF7 breast | DU-145 prostate | RXF-631 renal | T-47D breast | HS 578T breast | HOP-92 NSCLC | MDA-MB-435 | MDA-N | SR leukemia | NCI/ADR-RES ovarian | PC-3 prostate | BT-549 breast | HOP-18 NSCLC
> 100 µM: all other assays above

O=c1cc(-c2ccc(O)cc2)oc2cc(O)cc(O)c12
88.3 µM: MALME-3M melanoma
96.9 µM: EKVX NSCLC
40.2 µM: DMS 273 small cell lung
83.4 µM: SF-295 CNS
88.2 µM: KM20L2 colon
82.9 µM: KM12 colon
56.6 µM: HOP-92 NSCLC
89.8 µM: SK-OV-3 ovarian
80.3 µM: SK-MEL-2 melanoma
88.4 µM: MOLT-4 leukemia
86.6 µM: LOX IMVI melanoma
68 µM: OVCAR-5 ovarian
> 100 µM: 786-0 renal | SN12C renal | COLO 205 colon | SNB-19 CNS | HL-60(TB) leukemia | NCI-H460 lung | HCT-116 colon | HOP-62 NSCLC | UACC-62 melanoma | M19-MEL melanoma | DMS 114 small cell lung | M14 melanoma | U251 CNS | A549 NSCLC | K-562 leukemia | OVCAR-4 ovarian | RPMI-8226 leukemia | CCRF-CEM leukemia | TK-10 renal | SR leukemia | HCT-15 colon
83.9 µM: SF-268 CNS
80 µM: IGROV1 ovarian
59.1 µM: SK-MEL-28 melanoma
73.9 µM: UACC-257 melanoma
56.4 µM: UO-31 renal
56.8 µM: HCC-2998 colon
87.2 µM: SK-MEL-5 melanoma
64.5 µM: NCI-H522 lung
75.9 µM: NCI-H226 lung
37.3 µM: LXFL 529 NSCLC
46.6 µM: NCI-H23 lung
30.3 µM: ACHN renal
61.6 µM: XF 498 CNS
39.5 µM: SNB-78 CNS
43.7 µM: SNB-75 CNS
91.9 µM: OVCAR-3 ovarian

O=C1Cc2ccccc2CCc2ccsc21
not listed: HOP-62 NSCLC | UACC-62 melanoma | DMS 114 small cell lung | ACHN renal | MDA-MB-231 breast | MCF7 breast | DU-145 prostate | RXF-631 renal | T-47D breast | HS 578T breast | MDA-MB-435 | MDA-N | NCI/ADR-RES ovarian | PC-3 prostate | BT-549 breast
> 100 µM: all other assays above
